# Laboratory results published in US11759455B2, “Substituted 1H-imidazo[4,5-b]pyridin-2(3H)-ones and their use as GLUN2B receptor modulators” (JANSSEN PHARMACEUTICA NV, priority 2016, dated 2023).
# Where two headings read alike, the source gives them in different places.
# Target: T1, human GluN1/GluN2B NMDA receptors (Homo sapiens, UniProt Q13224)
# T1 construct: expressed in transfected cells
# Test: Cell-based calcium flux (FLIPR) assay on cloned human NR1/NR2B ion channels expressed in mammalian cells (standard and HTS buffer variants);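 note: stable Tet-On inducible cell line, Ca2+ influx triggered by glutamate at about EC40 plus 10 µM glycine, fluorescent dye read-out over 5 min, normalized to control wells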
# [1] = standard assay buffer (0.5 mM MgCl2 in dye loading buffer; 137 mM NaCl, 4 mM KCl in assay buffer), human GluN1/GluN2B, read-out: NR2B IC50 (μM) standard assay
# [2] = HTS assay buffer (1.5 mM MgCl2 in dye loading buffer; 150 mM NaCl, 3 mM KCl in assay buffer), human GluN1/GluN2B, read-out: NR2B IC50 (μM) HTS assay
# [3] = standard assay buffer (0.5 mM MgCl2 dye loading; 137 mM NaCl, 4 mM KCl assay buffer), human GluN1/GluN2B cells, read-out: NR2B IC50 (μM) standard assay
# [4] = HTS assay buffer (1.5 mM MgCl2 dye loading; 150 mM NaCl, 3 mM KCl assay buffer), human GluN1/GluN2B cells, read-out: NR2B IC50 (μM) HTS assay
# T1 sequence (Q13224 27-1484, other chains not shown): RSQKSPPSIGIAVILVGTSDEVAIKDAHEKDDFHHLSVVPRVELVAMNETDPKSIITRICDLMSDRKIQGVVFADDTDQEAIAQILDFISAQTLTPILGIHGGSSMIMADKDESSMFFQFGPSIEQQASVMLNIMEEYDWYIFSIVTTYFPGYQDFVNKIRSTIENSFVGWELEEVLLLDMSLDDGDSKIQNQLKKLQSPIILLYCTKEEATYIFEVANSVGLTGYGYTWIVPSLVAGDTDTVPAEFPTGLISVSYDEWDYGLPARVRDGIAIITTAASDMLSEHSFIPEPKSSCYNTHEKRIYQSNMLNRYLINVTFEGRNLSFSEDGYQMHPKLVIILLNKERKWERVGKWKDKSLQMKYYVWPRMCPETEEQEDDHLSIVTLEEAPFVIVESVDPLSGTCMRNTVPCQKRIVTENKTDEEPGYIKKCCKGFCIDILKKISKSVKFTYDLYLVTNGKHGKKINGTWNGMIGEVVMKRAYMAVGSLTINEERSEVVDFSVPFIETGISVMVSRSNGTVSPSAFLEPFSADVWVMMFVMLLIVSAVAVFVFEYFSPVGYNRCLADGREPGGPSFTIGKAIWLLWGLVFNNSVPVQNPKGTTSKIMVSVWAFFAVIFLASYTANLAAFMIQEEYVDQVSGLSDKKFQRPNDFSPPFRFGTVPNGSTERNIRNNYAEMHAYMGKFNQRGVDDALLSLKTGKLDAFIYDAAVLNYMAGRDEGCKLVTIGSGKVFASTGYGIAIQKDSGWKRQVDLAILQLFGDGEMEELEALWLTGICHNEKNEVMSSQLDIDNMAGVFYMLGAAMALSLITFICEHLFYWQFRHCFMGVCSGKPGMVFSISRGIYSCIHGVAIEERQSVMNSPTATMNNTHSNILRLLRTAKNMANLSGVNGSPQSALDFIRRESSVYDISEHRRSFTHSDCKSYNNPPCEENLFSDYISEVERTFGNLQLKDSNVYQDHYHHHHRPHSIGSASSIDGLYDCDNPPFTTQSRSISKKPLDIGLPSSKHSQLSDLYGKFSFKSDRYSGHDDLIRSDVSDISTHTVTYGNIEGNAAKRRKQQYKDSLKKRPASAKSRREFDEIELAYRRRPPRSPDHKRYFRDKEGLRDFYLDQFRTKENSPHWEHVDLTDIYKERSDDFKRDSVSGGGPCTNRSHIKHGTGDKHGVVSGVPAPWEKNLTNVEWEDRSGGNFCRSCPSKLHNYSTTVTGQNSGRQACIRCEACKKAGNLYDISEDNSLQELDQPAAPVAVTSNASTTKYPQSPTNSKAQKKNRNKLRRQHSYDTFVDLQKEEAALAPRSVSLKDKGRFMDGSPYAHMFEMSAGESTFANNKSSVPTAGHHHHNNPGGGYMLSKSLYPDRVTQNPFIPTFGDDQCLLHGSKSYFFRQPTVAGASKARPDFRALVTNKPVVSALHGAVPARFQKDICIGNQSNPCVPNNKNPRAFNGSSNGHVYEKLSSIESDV
SMILES,IC50 [3] [µM],also measured
"Cc1cccc(-c2cnc3c(c2)n(CC(=O)N2CC(F)C2)c(=O)n3C)c1F [Example 405, 1-[2-(3-Fluoroazetidin-1-yl)-2-oxo-ethyl]-6-(2-fluoro-3-methyl-phenyl)-3-methyl-imidazo[4,5-b]pyridin-2-one]",–,IC50 [1]: 0.022 µM
"Cn1c(=O)n(Cc2cccnc2)c2cc(-c3ccc(F)c(Cl)c3)cnc21 [Example 355, 6-(3-Chloro-4-fluoro-phenyl)-3-methyl-1-(3-pyridylmethyl)imidazo[4,5-b]pyridin-2-one]",–,IC50 [1]: 0.044 µM
"COc1ccc(-c2cnc3[nH]c(=O)n(Cc4cccc(F)c4)c3c2)cc1C [Example 498, 1-[(3-Fluorophenyl)methyl]-6-(4-methoxy-3-methyl-phenyl)-3H-imidazo[4,5-b]pyridin-2-one]",–,IC50 [1]: 2.22 µM
"COc1ccnc(Cn2c(=O)[nH]c3ncc(-c4ccc(C(C)(C)C)cc4)cc32)c1OC [Example 512, 6-(4-tert-Butylphenyl)-1-[(3,4-dimethoxy-2-pyridyl)methyl]-3H-imidazo[4,5-b]pyridin-2-one]",–,IC50 [2]: > 29 µM
"Cc1c(F)ccc(-c2cnc3c(c2)n(Cc2csnn2)c(=O)n3C)c1F [Example 576, 6-(2,4-Difluoro-3-methyl-phenyl)-3-methyl-1-(thiadiazol-4-ylmethyl)imidazo[4,5-b]pyridin-2-one]",–,IC50 [1]: 0.05 µM
"Cn1c(=O)n(CC(=O)N2CCC2)c2cc(-c3cnc(C(F)(F)F)s3)cnc21 [Example 115, 1-[2-(Azetidin-1-yl)-2-oxo-ethyl]-3-methyl-6-[2-(trifluoromethyl)thiazol-5-yl]imidazo[4,5-b]pyridin-2-one]",0.82,–
"COc1cccc(-c2cnc3[nH]c(=O)n(CC4CCCO4)c3c2)c1 (centres unmarked) [Example 475, 6-(3-Methoxyphenyl)-1-(tetrahydrofuran-2-ylmethyl)-3H-imidazo[4,5-b]pyridin-2-one]",–,IC50 [2]: 0.157 µM
"Cn1c(=O)n(CC(=O)N2CCC2)c2cc(-c3cc(F)c(F)c(F)c3)cnc21 [Example 411, 1-[2-(Azetidin-1-yl)-2-oxo-ethyl]-3-methyl-6-(3,4,5-trifluorophenyl)imidazo[4,5-b]pyridin-2-one]",–,IC50 [1]: 0.014 µM
"CNC(=O)Cn1c(=O)[nH]c2ncc(-c3cc(C)cc(C)c3)cc21 [Example 438, 2-[6-(3,5-Dimethylphenyl)-2-oxo-3H-imidazo[4,5-b]pyridin-1-yl]-N-methyl-acetamide]",–,IC50 [2]: 0.394 µM
"Cc1csc(-c2cnc3c(c2)n(Cc2cc(C)on2)c(=O)n3C)c1 [Example 14, 3-Methyl-1-[(5-methylisoxazol-3-yl)methyl]-6-(4-methyl-2-thienyl)imidazo[4,5-b]pyridin-2-one]",0.097,–
"Cc1cc(F)ccc1-c1cnc2[nH]c(=O)n(Cc3ccccc3C#N)c2c1 [Example 483, 2-[[6-(4-Fluoro-2-methyl-phenyl)-2-oxo-3H-imidazo[4,5-b]pyridin-1-yl]methyl]benzonitrile]",–,IC50 [2]: 1.8 µM
"Cn1c(=O)n(CC(=O)N2CC(F)C2)c2cc(-c3ccc(C(F)F)s3)cnc21 [Example 10, 6-[5-(Difluoromethyl)-2-thienyl]-1-[2-(3-fluoroazetidin-1-yl)-2-oxo-ethyl]-3-methyl-imidazo[4,5-b]pyridin-2-one]",0.01,–
"Cc1ccc(-c2cnc3c(c2)n(CC(=O)N2CCC2)c(=O)n3C)s1 [Example 326, 1-[2-(Azetidin-1-yl)-2-oxo-ethyl]-3-methyl-6-(5-methyl-2-thienyl)imidazo[4,5-b]pyridin-2-one]",–,IC50 [1]: 0.022 µM
"Cc1csc(-c2cnc3[nH]c(=O)n(Cc4cc(C)on4)c3c2)c1 [Example 125, 1-[(5-Methylisoxazol-3-yl)methyl]-6-(4-methyl-2-thienyl)-3H-imidazo[4,5-b]pyridin-2-one]",0.082,–
"Cc1cccc(-c2cnc3c(c2)n(Cc2cncc(F)c2)c(=O)n3C)c1 [Example 350, 1-[(5-Fluoro-3-pyridyl)methyl]-3-methyl-6-(m-tolyl)imidazo[4,5-b]pyridin-2-one]",–,IC50 [1]: 0.029 µM
"Cc1nnc(Cn2c(=O)n(C)c3ncc(-c4ccc(C(F)(F)F)s4)cc32)o1 [Example 567, 3-Methyl-1-[(5-methyl-1,3,4-oxadiazol-2-yl)methyl]-6-[5-(trifluoromethyl)-2-thienyl]imidazo[4,5-b]pyridin-2-one]",–,IC50 [1]: 0.146 µM
"Cc1cc(-c2cnc3c(c2)n(Cc2cnccn2)c(=O)n3C)ccc1F [Example 47, 6-(4-Fluoro-3-methyl-phenyl)-3-methyl-1-(pyrazin-2-ylmethyl)imidazo[4,5-b]pyridin-2-one]",0.113,–
"CN(C)C(=O)Cn1c(=O)n(C)c2ncc(-c3csc(C(F)(F)F)c3)cc21 [Example 101, N,N-Dimethyl-2-[3-methyl-2-oxo-6-[5-(trifluoromethyl)-3-thienyl]imidazo[4,5-b]pyridin-1-yl]acetamide]",0.019,–
"Cc1cc(C)cc(-c2cnc3[nH]c(=O)n(CC(=O)NC4CC4)c3c2)c1 [Example 39, N-Cyclopropyl-2-[6-(3,5-dimethylphenyl)-2-oxo-3H-imidazo[4,5-b]pyridin-1-yl]acetamide]",–,IC50 [4]: 1.03 µM
"COCCNC(=O)Cn1c(=O)[nH]c2ncc(-c3cccnc3)cc21 [Example 445, N-(2-Methoxyethyl)-2-[2-oxo-6-(3-pyridyl)-3H-imidazo[4,5-b]pyridin-1-yl]acetamide]",–,IC50 [2]: > 29 µM
"Cc1cc(F)ccc1-c1cnc2c(c1)n(CC(=O)NC1CC1)c(=O)n2C [Example 42, N-Cyclopropyl-2-[6-(4-fluoro-2-methyl-phenyl)-3-methyl-2-oxo-imidazo[4,5-b]pyridin-1-yl]acetamide]",–,IC50 [4]: 2.71 µM
"O=c1[nH]c2ncc(-c3cc(F)cc(F)c3)cc2n1CC1CC1 [Example 470, 1-(Cyclopropylmethyl)-6-(3,5-difluorophenyl)-3H-imidazo[4,5-b]pyridin-2-one]",–,IC50 [2]: 0.509 µM
"COc1ccc(-c2cnc3[nH]c(=O)n(Cc4ccc(C#N)cc4)c3c2)cc1 [Example 476, 4-[[6-(4-Methoxyphenyl)-2-oxo-3H-imidazo[4,5-b]pyridin-1-yl]methyl]benzonitrile]",–,IC50 [2]: 4.53 µM
"Cc1cc(-c2cnc3c(c2)n(Cc2ccncn2)c(=O)n3C)ccc1F [Example 71, 6-(4-Fluoro-3-methyl-phenyl)-3-methyl-1-(pyrimidin-4-ylmethyl)imidazo[4,5-b]pyridin-2-one]",0.278,–
"CCC(=O)Cn1c(=O)[nH]c2ncc(-c3ccc(F)c(F)c3)cc21 [Example 330, 6-(3,4-Difluorophenyl)-1-(2-oxobutyl)-3H-imidazo[4,5-b]pyridin-2-one]",–,IC50 [1]: 0.004 µM
"CN(C)C(=O)Cn1c(=O)n(C)c2ncc(-c3ccc(C4CC4)s3)cc21 [Example 110, 2-[6-(5-Cyclopropyl-2-thienyl)-3-methyl-2-oxo-imidazo[4,5-b]pyridin-1-yl]-N,N-dimethyl-acetamide]",0.04,–

# The next lines start with results.
IC50 [3] [µM],SMILES,also measured
0.023,"Cc1cc(-c2cnc3[nH]c(=O)n(Cc4cccnc4)c3c2)ccc1F [Example 294, 6-(4-Fluoro-3-methyl-phenyl)-1-(3-pyridylmethyl)-3H-imidazo[4,5-b]pyridin-2-one]",–
0.479,"O=c1[nH]c2ncc(-c3cccc(C(F)(F)F)c3)cc2n1Cc1cccc(F)c1 [Example 222, 1-[(3-Fluorophenyl)methyl]-6-[3-(trifluoromethyl)phenyl]-3H-imidazo[4,5-b]pyridin-2-one]",–
0.115,"O=c1[nH]c2ncc(-c3cccc(C(F)(F)F)c3)cc2n1CC1CC1 [Example 211, 1-(Cyclopropylmethyl)-6-[3-(trifluoromethyl)phenyl]-3H-imidazo[4,5-b]pyridin-2-one]",–
5.16,"Cn1ccc(Cn2c(=O)[nH]c3ncc(-c4ccc(F)cc4)cc32)n1 [Example 128, 6-(4-Fluorophenyl)-1-[(1-methylpyrazol-3-yl)methyl]-3H-imidazo[4,5-b]pyridin-2-one]",–
0.283,"O=c1[nH]c2ncc(-c3ccccc3)cc2n1CCN1CCC1 [Example 153, 1-[2-(Azetidin-1-yl)ethyl]-6-phenyl-3H-imidazo[4,5-b]pyridin-2-one]",–
0.105,"Cc1noc(Cn2c(=O)[nH]c3ncc(-c4ccc(F)cc4)cc32)n1 [Example 140, 6-(4-Fluorophenyl)-1-[(3-methyl-1,2,4-oxadiazol-5-yl)methyl]-3H-imidazo[4,5-b]pyridin-2-one]",–
1.43,"O=c1[nH]c2ncc(-c3cccc(C(F)(F)F)c3)cc2n1CCN1CCCCC1 [Example 161, 1-[2-(1-Piperidyl)ethyl]-6-[3-(trifluoromethyl)phenyl]-3H-imidazo[4,5-b]pyridin-2-one]",–
1.65,"COc1ccc(Cn2c(=O)[nH]c3ncc(-c4cccc(C(F)(F)F)c4)cc32)cc1F [Example 220, 1-[(3-Fluoro-4-methoxy-phenyl)methyl]-6-[3-(trifluoromethyl)phenyl]-3H-imidazo[4,5-b]pyridin-2-one]",–
0.756,"COC1CN(CCn2c(=O)[nH]c3ncc(-c4cccc(C(F)(F)F)c4)cc32)C1 [Example 149, 1-[2-(3-Methoxyazetidin-1-yl)ethyl]-6-[3-(trifluoromethyl)phenyl]-3H-imidazo[4,5-b]pyridin-2-one]",–
1.98,"O=c1[nH]c2ncc(-c3ccc(F)cc3)cc2n1Cc1ccccn1 [Example 286, 6-(4-Fluorophenyl)-1-(2-pyridylmethyl)-3H-imidazo[4,5-b]pyridin-2-one]",–
0.021,"O=c1[nH]c2ncc(-c3cccc(OC(F)F)c3)cc2n1Cc1cncc(F)c1 [Example 304, 6-[3-(Difluoromethoxy)phenyl]-1-[(5-fluoro-3-pyridyl)methyl]-3H-imidazo[4,5-b]pyridin-2-one]",–
0.316,"Cc1cncc(Cn2c(=O)[nH]c3ncc(-c4ccc(F)c(C(F)(F)F)c4)cc32)c1 [Example 309, 6-[4-Fluoro-3-(trifluoromethyl)phenyl]-1-[(5-methyl-3-pyridyl)methyl]-3H-imidazo[4,5-b]pyridin-2-one]",–
